{"source": "patent US9642819B2", "about": "“Low dosage serotonin 5-HT2A receptor agonist to suppress inflammation” (BOARD OF SUPERVISORS OF LOUISIANA STATE UNIVERSITY AND …, priority 2008, dated 2017)", "key": {"IL-6 expression": {"test_system": "IL-6 expression", "experiment": "TNF-α induced IL-6 expression in rat primary aortic endothelial cells", "assay_type": "cell-based", "conditions": "10 pM, 60 minutes prior to TNF-alpha 10 ng/ml", "experimental": "(§1) Experiments were conducted to analyze for the effect of 5-HT2A receptor activation on proinflammatory marker expression in other cell types. Human neuroblastoma cells (SHSY5Y) and rat glioma cells (C6) can be obtained from the American Type Culture Collection (Manassas, Va.), but were provided Purdue University. The cells were grown in DMEM+10% FBS. DMEM was made and provided by the Cell and Molecular Core of the Mentoring in Cardiovascular Biology COBRE center at LSUHSC-NO. FBS was purchased from Invitrogen (Carlsbad, Calif.). Primary rat aortic endothelial cells were prepared fresh and provided by the Cell and Molecular Core of the Mentoring in Cardiovascular Biology COBRE center at LSUHSC-NO. Cells were tested at passages 3-4. Cells were grown in endothelial cell growth medium (Cell Applications, Inc.). Primary rat bronchoaveolar macrophage cells were obtained by lung lavage from rats and used at day 3 or 4 post plating in DMEM+10% FBS.\n(§2) All treatments with 5-HT2A receptor agonists occurred 1 hour prior to the addition of TNF-alpha (10 ng/ml) or LPS (100 ng or 1 mg) depending on the experiment. All RNA isolations, cDNA synthesis, QPCR gene expression assays examining ICAM1, VCAM1, and IL6, and data analysis were performed as described above in Example 1, except the primers were different for the human cell experiment. […]"}, "[1]": {"test_system": "ICAM-1, VCAM-1, and IL-6 gene expression", "experiment": "TNF-α induced proinflammatory gene expression (ICAM-1, VCAM-1, IL-6) by Q-RT-PCR in RASM cells", "assay_type": "cell-based, rat", "experimental": "(§3) RASM cells and treatment. Rat aortic smooth muscle (RASM) cells were isolated from adult 180 g male Sprague-Dawley rats and provided by the Cell and Molecular Core Facility in the Department of Pharmacology at LSUHSC-NO. Isolated RASM cells were grown in M-199 media containing 10% fetal bovine serum (Gibco), 100 units/mL penicillin, and 100 µg/mL streptomycin, and incubated at 37° C. in 5% CO2. Cells for all assays were used between passages 3 and 5. Prior to treatments, cells were grown in M-199 media with 10% fetal bovine serum (FBS) until 30-50% confluent. For most assays, cells were treated with (R)-DOI, or other drugs as indicated, at specific concentrations for 24 hours, followed by TNF-α (10 ng/ml) and (R)-DOI at the same pretreatment concentrations in fresh M-199 media. After another 24 hours, the cells were scraped, pelleted, and processed for RNA.\n(§4) RNA isolation and Quantitative Realtime-PCR. RNA was extracted from cells using Illustra RNAspin Mini kits from GE Healthcare Life Sciences (Piscataway, N.J.) following protocols supplied by the manufacturer. First strand cDNA was generated using the ImProm-II cDNA synthesis kit (Promega) following the manufacturers protocols. Q-RT-PCR was performed using the ProbeLibrary system from Roche (Indianapolis, Ind.) in combination with the HotStart-IT probe qpcr master mix from USB Biological (Cleveland, Ohio) following manufactures protocols.\n(§5) Primers were synthesized by IDT (Coralville, Iowa). ProbeLibrary probes from Roche were: U3, U74, U13, U106, U79 for 5-HT2AR, ICAM-1, VCAM-1, IL-6, and cyclophillin B, respectively. Quantitative determination of gene expression levels using a 2-step cycling protocol was performed on a MyIQ-5 Cycler (Bio-Rad, Hercules Calif.). Relative gene expression levels were calculated using the 2^[−ΔΔC(T)] method. Levels of all targets from the test samples were normalized to rat cyclophillin B expression.\n(§6) To examine the effects of 5-HT2A receptor activation on TNF-α mediated proinflammatory gene expression, RASM cells were pretreated with (R)-DOI, a selective 5-HT2 receptor agonist, as described above. Dose-response curves were determined for the effects on ICAM-1, VCAM-1, and IL-6 gene expression for twelve different concentrations of (R)-DOI ranging from 0.1 pM to 100 nM, with each experiment repeated in triplicate. In FIGS. 1A-1C, the Y-axis represents a percent of TNF-α for the dose of (R)-DOI indicated on the X-axis."}, "ICAM-1 gene expression [2]": {"test_system": "ICAM-1 gene expression", "experiment": "LPS stimulated ICAM-1 gene expression in primary rat aortic smooth muscle cells", "assay_type": "cell-based", "conditions": "60 minute pretreatment, 100 nM", "experimental": "All treatments with 5-HT2A receptor agonists occurred 1 hour prior to the addition of TNF-alpha (10 ng/ml) or LPS (100 ng or […]) depending on the experiment. All RNA isolations, cDNA synthesis, QPCR gene expression assays examining ICAM1, VCAM1, and IL6, and data analysis were performed as described above in Example 1, except the primers were different for the human cell experiment. The human gene PCR primer sequences and universal probe numbers were as follows: cyclophillin (control amplicon; Probe U64): forward primer, 5′-[…]-3′ (SEQ ID NO: 11), reverse primer, 5′-[…]-3′ (SEQ ID NO: 12); and human ICAM-1 (Probe U71, intracellular adhesion molecule 1): forward primer, 5′-[…]-3′ (SEQ ID NO: 13), reverse primer, 5′-[…]-3′ (SEQ ID NO: 14).\nThe effect of (R)-DOI (60 minute pretreatment) on the expression of ICAM-1 in primary rat aortic smooth muscle cells after stimulation with LPS was examined. […] At a higher dose of LPS (1 μg), there was no effect of (R)-DOI on the increase in ICAM-1."}, "ICAM-1 gene expression [3]": {"test_system": "ICAM-1 gene expression", "experiment": "TNF-α induced ICAM-1 gene expression in primary rat aortic smooth muscle cells", "assay_type": "cell-based", "conditions": "for IC50: Rattus norvegicus", "experimental": "as §3, §4, §5, §6"}, "5-HT2A receptor": {"molecular_target": "5-HT2A receptor", "conditions": "read-out: Affinity=Ki for the receptor; cited from earlier work"}, "VCAM-1 gene expression": {"test_system": "VCAM-1 gene expression", "experiment": "TNF-α induced VCAM-1 gene expression in rat primary aortic endothelial cells", "assay_type": "cell-based", "conditions": "10 pM, 60 minutes prior to TNF-alpha 10 ng/ml", "experimental": "as §1, §2"}}, "note": "Entries after “also recorded” stand apart in the source; their conditions may differ. Read-outs that look alike come from different tables or passages of the source.", "data": [{"smiles": "COc1cc(C[C@@H](C)N)c(OC)cc1I", "note": "[(R)-DOI, (R)-1-(2,5-dimethoxy-4-iodophenyl)-2-aminopropane]", "values": [{"measurement": "effect on TNF-α-induced IL-6 expression in aortic endothelial cells", "setting": "IL-6 expression", "value": "potently inhibited"}, {"measurement": "effect of pretreatment on TNF-α induced increase in proinflammatory gene expression", "setting": "[1]; 1 nM prior to TNF-α 10 ng/ml", "value": "completely blocked; also recorded: completely inhibits"}, {"measurement": "IC50", "setting": "[1]; RASM cells, TNF-α 10 ng/ml, ICAM-1, VCAM-1, IL-6, read-out: IC50 for inhibition of TNF-α mediated proinflammatory markers", "value": "0.01 to 0.02", "unit": "nM"}, {"measurement": "IC50", "setting": "[1]; Rattus norvegicus, RASM cells, TNF-α 10 ng/ml, ICAM-1, VCAM-1, IL-6, read-out: IC50 for inhibition of TNF-α mediated proinflammatory markers", "value": "~0.02", "unit": "nM"}, {"measurement": "IC50", "setting": "[1]; Rattus norvegicus, read-out: IC50 in blocking TNF-α mediated inflammation", "value": "~0.02", "unit": "nM"}, {"measurement": "potency of inhibiting inflammatory marker gene expression relative to any current drug on the market", "setting": "[1]; greater", "value": "at least 100 times"}, {"measurement": "potency relative to the more effective current anti-inflammatory agents", "setting": "[1]; more potent", "value": "~300", "unit": "fold"}, {"measurement": "effect of compound alone on baseline expression of ICAM-1, VCAM-1, IL-6", "setting": "[1]; without TNF-α, 1 nM", "value": "no effect"}, {"measurement": "effect on ICAM-1 induction by low dose of LPS", "setting": "ICAM-1 gene expression [2]; LPS 100 ng", "value": "able to block the response"}, {"measurement": "effect on ICAM-1 increase by higher dose of LPS", "setting": "ICAM-1 gene expression [2]; LPS 1 μg", "value": "no effect"}, {"measurement": "block of TNF-α induced ICAM1 gene expression at 1 nM", "setting": "ICAM-1 gene expression [3]; 1 nM pretreatment, VCAM1 and IL6 identical", "value": "blocked gene expression"}, {"measurement": "block of TNF-α effect on ICAM-1 expression with 24 hour and one hour pretreatments and simultaneous treatment", "setting": "ICAM-1 gene expression [3]; 1 nM, TNF-α 10 ng/ml", "value": "completely blocked"}, {"measurement": "IC50", "setting": "ICAM-1 gene expression [3]; RASM passage 4, media with FBS, 24 h pretreatment, TNF-α 10 ng/ml, read-out: IC50 for proinflammatory gene expression inhibition for ICAM-1", "value": 0.0195, "unit": "nM"}, {"measurement": "IC50", "setting": "ICAM-1 gene expression [3]; RASM passage 4, serum starved for 8 hours, read-out: IC50 for ICAM-1 gene expression inhibition in serum-free media", "value": 0.36, "unit": "nM"}, {"measurement": "Ki", "setting": "5-HT2A receptor", "value": 0.5, "unit": "nM"}, {"measurement": "effect on TNF-alpha induced increase in VCAM-1 gene expression in aortic endothelial cells", "setting": "VCAM-1 gene expression", "value": "less potent"}]}]}
